Measured values published in PubChem BioAssay AID1963967 (Molecular Pharmacology Branch, DTP, NCI, 2024).

Test system: 855422-203-R-J1-PDC spheroids with HUVEC/MSC, viability
Experiment: Anticancer human tumor 855422-203-R-J1-PDC patient-derived bladder carcinoma cell line growth inhibition [PI3K]
Conditions: for IC50: curve of first compound; for viability, T/C: stronger effect = lower value; active = viability on the fitted dose curve at most 10% of control; inactive = the rest
Source text: Combinatorial screen of targeted agents with the PI3K inhibitors inavolisib, alpelisib, duvelisib, and copanlisib in multi-cell type tumor spheroids
A high-throughput screen of multi-cell type tumor spheroids was designed to identify active combinations of targeted small molecules and PI3K pathway inhibitors. Complex spheroids include a stromal component modeled by human endothelial cells (HUVEC) and fibroblasts modeled by human mesenchymal stem cells (MSCs). The concentration ranges selected for each drug and investigational agent were based upon clinically achievable concentrations if the clinical Cmax of the agent was known.
Compounds. The drugs and investigational agents: inavolisib (NSC800729), alpelisib (NSC765974), duvelisib (NSC772469), copanlisib (NSC816437), ipatasertib (NSC767898), afuresertib (NSC778305), talazoparib (NSC767125), sapanisertib (NSC764658), selumetinib (NSC741078), tovorafenib (DAY101, NSC766906), vemurafenib (NSC761431), ravoxertinib (NSC781343), sotorasib (NSC818433), MRTX1133 (NSC 836407), abemaciclib (NSC 768073), palbociclib (NSC758247), venetoclax (NSC 766270), SY5609 (NSC837396), enzalutamide (NSC755605), and darolutamide (NSC825331), were obtained from the National Cancer Institute (NCI) Developmental Therapeutics Program Chemical Repository. The FDA-approved anticancer drug set is available from the NCI Developmental Therapeutics Program. […] The stock solutions were prepared in dimethyl sulfoxide (DMSO, Sigma-Aldrich, St. Louis, MO, cat. D2650) at 800-fold the tested concentration and stored at -70 degrees C prior to their use. All drugs and investigational agents were tested over a range starting from a high concentration at or near the clinical Cmax and decreasing in half-log increments. If the clinical Cmax for an agent had not been determined, the highest concentration tested was 10 microM.
Cell Culture. All cells were maintained in an incubator at 37 degrees C and 5% CO2 with 95% humidity. The PDC lines were cultured according to standard operating procedures established by the NCI PDMR (https://pdmr.cancer.gov/sops/default.htm). All PDCs were thawed and cultured in Matrigel-coated flasks prepared with a working solution of 1X Ham's F-12 nutrient mix, without supplementation (Invitrogen, Waltham, MA, cat. 11765054), 100 U/mL penicillin-streptomycin (Invitrogen, cat. 15140122), and 2.5% Matrigel (Corning Inc., Corning, NY, cat. 354248) for the first three passages. The 354836-022-R-J1-PDC, 475296-252-R-J1-PDC, and 997726-040-R-J2-PDC lines were cultured in 6A media, which includes advanced DMEM/F-12 (Thermo Fisher Scientific, cat. 12634028), 10 mM HEPES (Thermo Fisher Scientific, cat. 15630080), 1X GlutaMAX supplement (Thermo Fisher Scientific, cat. 35050061), 0.1 mg/mL primocin (InvivoGen, San Diego, CA, cat. ant-pm-2), 10% defined fetal bovine serum, heat inactivated (HyClone Laboratories Inc., Logan, UT, cat. SH30070.03HI), 50% L-WRN conditioned media (ATCC, cat. CRL-3276), 1.25 mM N-Acetyl-L-cysteine (Sigma-Aldrich, cat. A9165), 10 mM nicotinamide (Sigma-Aldrich, cat. N0636), 1X B-27 supplement (Thermo Fisher Scientific, cat. 17504044), 1X N-2 supplement (Thermo Fisher Scientific, cat. 17502048), and 10 microM Y-27632 dihydrochloride (Tocris Bioscience, Bristol, United Kingdom, cat. 1254). The 624824-186-R-J2-PDC line was cultured in 6C/Colon 1B media, which includes all 6A media components plus 50 ng/mL human EGF recombinant protein (Thermo Fisher Scientific, cat. PHG0311). […]

[1] = second compound 0.00316 µM, first compound 0.0316 µM
[2] = second compound 0.00316 µM, first compound 0.1 µM
[3] = second compound 0.00316 µM, first compound 0.316 µM
[4] = second compound 0.00316 µM, first compound 1 µM
[5] = second compound 0.00316 µM, first compound 3.16 µM
[6] = second compound 0.00316 µM, first compound 10 µM
[7] = second compound 0.01 µM, first compound 0.0316 µM
[8] = second compound 0.01 µM, first compound 0.1 µM
[9] = second compound 0.01 µM, first compound 0.316 µM
[10] = second compound 0.01 µM, first compound 1 µM
[11] = second compound 0.01 µM, first compound 3.16 µM
[12] = second compound 0.01 µM, first compound 10 µM
[13] = second compound 0.0316 µM, first compound 0.0316 µM
[14] = second compound 0.0316 µM, first compound 0.1 µM
[15] = second compound 0.0316 µM, first compound 0.316 µM
[16] = second compound 0.0316 µM, first compound 1 µM
[17] = second compound 0.0316 µM, first compound 3.16 µM
[18] = second compound 0.0316 µM, first compound 10 µM
[19] = second compound 0.1 µM, first compound 0.0316 µM
[20] = second compound 0.1 µM, first compound 0.1 µM
[21] = second compound 0.1 µM, first compound 0.316 µM
[22] = second compound 0.1 µM, first compound 1 µM
[23] = second compound 0.1 µM, first compound 3.16 µM
[24] = second compound 0.1 µM, first compound 10 µM
[25] = second compound 0.316 µM, first compound 0.0316 µM
[26] = second compound 0.316 µM, first compound 0.1 µM
[27] = second compound 0.316 µM, first compound 0.316 µM
[28] = second compound 0.316 µM, first compound 1 µM
[29] = second compound 0.316 µM, first compound 3.16 µM
[30] = second compound 0.316 µM, first compound 10 µM
[31] = second compound 1 µM, first compound 0.0316 µM
[32] = second compound 1 µM, first compound 0.1 µM
[33] = second compound 1 µM, first compound 0.316 µM
[34] = second compound 1 µM, first compound 1 µM
[35] = second compound 1 µM, first compound 3.16 µM
[36] = second compound 1 µM, first compound 10 µM
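Note: agents incubated with spheroids for one week before read-out.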
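Throughout, for viability, T/C: 100% = DMSO vehicle-treated control wells.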

CC(Cn1ccc(-c2ccc(C#N)c(Cl)c2)n1)NC(=O)c1cc(C(C)O)[nH]n1 (centres undefined) + CC(Nc1ccc2c(c1)OCCn1cc(N3C(=O)OCC3C(F)F)nc1-2)C(N)=O
1.67 µM: IC50 (second compound 0.316 µM)
> 10 µM: IC50 (second compound 0.00316 µM) | IC50 (second compound 0.01 µM) | IC50 (second compound 0.0316 µM) | IC50 (second compound 0.1 µM)
inactive: viability, T/C [1] 106% | viability, T/C [2] 88% | viability, T/C [3] 115% | viability, T/C [4] 86.7% | viability, T/C [5] 99% | viability, T/C [6] 86% | viability, T/C [7] 105% | viability, T/C [8] 82.4% | viability, T/C [9] 107% | viability, T/C [10] 99.9% | viability, T/C [11] 88.4% | viability, T/C [12] 79.6% | viability, T/C [13] 83.3% | viability, T/C [14] 83.7% | viability, T/C [15] 82% | viability, T/C [16] 85% | viability, T/C [17] 97.8% | viability, T/C [18] 70.3% | viability, T/C [19] 67.1% | viability, T/C [20] 71.9% | viability, T/C [21] 75.6% | viability, T/C [22] 71.8% | viability, T/C [23] 66.4% | viability, T/C [24] 63.4% | viability, T/C [25] 53.4% | viability, T/C [26] 51.3% | viability, T/C [27] 59.7% | viability, T/C [28] 49.6% | viability, T/C [29] 46.1% | viability, T/C [30] 44.7% | viability, T/C [31] 35.6% | viability, T/C [32] 40.9% | viability, T/C [33] 36.1% | viability, T/C [34] 36.2% | viability, T/C [35] 33.6% | viability, T/C [36] 28.9%
< 0.0316 µM: IC50 (second compound 1 µM)

Cn1nccc1Nc1nccc(-c2ccn(C(CO)c3ccc(Cl)c(F)c3)c(=O)c2)n1 (centres undefined) + COc1c(OCCCN2CCOCC2)ccc2c3n(c(=NC(=O)c4cnc(N)nc4)nc12)CCN3
5.01 µM: IC50 (second compound 0.01 µM)
7.09 µM: IC50 (second compound 0.00316 µM)
active: viability, T/C [24] 6.36% | viability, T/C [25] 7.7% | viability, T/C [26] 8.43% | viability, T/C [27] 5.39% | viability, T/C [28] 3.86% | viability, T/C [29] 3.44% | viability, T/C [30] 1.9% | viability, T/C [31] 2.72% | viability, T/C [32] 2.95% | viability, T/C [33] 1.79% | viability, T/C [34] 2.14% | viability, T/C [35] 0.55% | viability, T/C [36] 0.89%
inactive: viability, T/C [1] 94.4% | viability, T/C [2] 91.3% | viability, T/C [3] 106% | viability, T/C [4] 93.5% | viability, T/C [5] 83.7% | viability, T/C [6] 35.7% | viability, T/C [7] 88.8% | viability, T/C [8] 91.7% | viability, T/C [9] 83.3% | viability, T/C [10] 94.7% | viability, T/C [11] 67% | viability, T/C [12] 24.3% | viability, T/C [13] 61% | viability, T/C [14] 59.8% | viability, T/C [15] 53.6% | viability, T/C [16] 51.6% | viability, T/C [17] 38.1% | viability, T/C [18] 12.8% | viability, T/C [19] 25.1% | viability, T/C [20] 22.6% | viability, T/C [21] 22.3% | viability, T/C [22] 17.9% | viability, T/C [23] 10.5%
< 0.0316 µM: IC50 (second compound 0.1 µM) | IC50 (second compound 0.316 µM) | IC50 (second compound 1 µM)
1.04 µM: IC50 (second compound 0.0316 µM)
